Laboratory results as given in the supplement of paper PMC10307832.

How the values were obtained:
Test in all cases: relative viability (nuclei count vs DMSO), 5 days (fraction); higher = more cells survive
[1] = compound: Cc1cc([C@@H](C)Nc2ccccc2C(=O)O)c2nc(N3CCOCC3)cc(=O)n2c1 [AZD6482] + O=C(CCCCCCC(=O)Nc1ccccc1)NO [Vorinostat] (partner 1 µM)
Summary of the method: (§1)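 Nuclei were stained with Hoechst during a one-step fixation (final 0.05% Triton X-100, 1% formaldehyde, 1 ug/ml Hoechst) carried out 5 days after dosing, then counted on 4× images. The cells, lung cancer lines in 1536-well plates, had been dosed by pin tool the day after seeding with one drug alone or a fixed anchor-drug dose plus five library-drug doses (not always all listed) in √10 steps. Relative viability is the nuclei count in treated wells divided by that in vehicle wells, and each value is the median of duplicate plates.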

[2] = compound: COc1cc2nc(N3CCCN(C)CC3)nc(NC3CCN(Cc4ccccc4)CC3)c2cc1OC + O=C(c1cc(Cc2n[nH]c(=O)c3ccccc23)ccc1F)N1CCN(C(=O)C2CC2)CC1 [Olaparib] (partner 8 µM)
Summary of the method: as §1

[3] = compound: COc1cc2nc(N3CCCN(C)CC3)nc(NC3CCN(Cc4ccccc4)CC3)c2cc1OC + Nc1nc2[nH]cc(CCc3ccc(C(=O)N[C@@H](CCC(=O)O)C(=O)O)cc3)c2c(=O)[nH]1 [Pemetrexed] (partner 0.2 µM)
Summary of the method: as §1

[4] = compound: Cc1cc([C@@H](C)Nc2ccccc2C(=O)O)c2nc(N3CCOCC3)cc(=O)n2c1 [AZD6482] + CS(=O)(=O)N1CCN(Cc2cc3nc(-c4cccc5[nH]ncc45)nc(N4CCOCC4)c3s2)CC1 [Pictilisib] (partner 1 µM)
Summary of the method: as §1

Cell Line	relative viability ([1]; first compound 0.08 µM)	relative viability ([1]; first compound 0.253 µM)	relative viability ([1]; first compound 0.8 µM)	relative viability ([1]; first compound 2.53 µM)	relative viability ([1]; first compound 8 µM)	relative viability ([2]; first compound 0.2 µM)	relative viability ([2]; first compound 0.6325 µM)	relative viability ([2]; first compound 2 µM)	relative viability ([2]; first compound 6.325 µM)	relative viability ([3]; first compound 0.2 µM)	relative viability ([3]; first compound 0.6325 µM)	relative viability ([3]; first compound 2 µM)	relative viability ([3]; first compound 6.325 µM)	relative viability ([4]; first compound 0.08 µM)	relative viability ([4]; first compound 0.253 µM)	relative viability ([4]; first compound 0.8 µM)	relative viability ([4]; first compound 2.53 µM)	relative viability ([4]; first compound 8 µM)
NCI-H1734	0.804	0.68	0.801	0.52	0.582	0.61	0.533	0.645	0.594	0.405	0.414	0.401	0.424	0.395	0.452	0.485	0.305	0.408
NCI-H1755	0.691	0.638	0.742	0.495	0.566	0.805	0.832	0.85	0.831	0.459	0.415	0.414	0.368	0.274	0.317	0.372	0.213	0.43
NCI-H1793	0.582	0.481	0.676	0.38	0.404	0.805	0.924	1.09	0.995	0.919	1.19	0.945	0.797	0.261	0.336	0.293	–	0.259
NCI-H1915	0.432	0.467	0.538	0.4	0.462	0.243	0.267	0.272	0.251	0.48	0.442	0.503	0.463	0.886	0.916	1.03	0.79	0.909
NCI-H1944	0.544	0.498	0.609	0.43	0.469	0.416	0.436	0.397	0.396	0.598	0.684	0.566	0.587	0.314	0.342	0.366	0.246	0.33
NCI-H1975	0.638	0.655	0.743	0.535	0.482	0.761	0.755	0.915	0.823	0.289	0.301	0.309	0.267	0.249	0.275	0.307	0.274	0.258
NCI-H1993	0.742	0.73	0.569	0.376	0.47	1.03	1.05	1.14	1.2	0.602	0.644	0.579	0.549	0.907	0.779	–	–	0.769
NCI-H2009	0.583	0.775	0.665	0.501	0.573	0.703	0.706	0.691	0.631	1	0.972	1.03	0.943	0.71	0.765	0.871	0.516	0.743
NCI-H2023	0.642	0.435	0.509	0.37	0.455	0.424	0.476	0.48	0.177	0.161	0.254	0.248	0.144	0.194	0.227	0.233	0.132	0.24
NCI-H2085	0.557	0.402	0.517	0.398	0.341	0.775	0.82	0.869	0.785	0.827	1.02	0.943	0.87	0.428	0.359	0.404	0.33	0.407
NCI-H2087	0.465	0.81	0.98	0.183	0.92	0.633	0.615	0.706	0.594	0.663	0.622	0.686	0.656	0.758	0.723	0.91	0.611	0.889
NCI-H2126	0.728	0.703	0.577	0.389	0.432	1.01	0.892	0.883	0.919	0.74	0.623	0.637	0.644	0.446	0.513	0.494	0.368	0.483
NCI-H2170	0.742	0.695	0.767	0.677	0.578	0.623	0.576	0.675	0.566	0.256	0.26	0.271	0.274	0.285	0.261	0.307	0.258	0.317
NCI-H2228	0.482	0.302	0.798	0.555	0.904	0.637	0.62	0.46	0.35	0.32	0.347	0.336	0.26	0.368	0.691	0.266	0.387	0.387
NCI-H2347	0.386	0.516	0.522	0.399	0.353	0.563	0.532	0.535	0.521	0.394	0.4	0.494	0.538	–	0.75	0.559	0.393	0.421
